This is an account of results in paper doi:10.1101/2023.12.04.569845, “Identification of 4-(6-((2-methoxyphenyl)amino)pyrazin-2-yl)benzoic acids as CSNK2A inhibitors with antiviral activity and improved selectivity over PIM3” (bioRxiv, 2023).

Among the targets are DAPK1 (Homo sapiens, UniProt P53355); FGFR2 (Homo sapiens, UniProt P21802); MELK (Homo sapiens, UniProt Q14680); NEK7 (Homo sapiens, UniProt Q8TDX7).
Common to all, as to assay: biochemical
What all share (design): Thermal shift (DSF, SYPRO Orange) Tm shift of recombinant kinase domains at 10 uM compound

The target of the next test is T1, EPHB3 (Homo sapiens, UniProt P54753).
T1 sequence (P54753 1-998): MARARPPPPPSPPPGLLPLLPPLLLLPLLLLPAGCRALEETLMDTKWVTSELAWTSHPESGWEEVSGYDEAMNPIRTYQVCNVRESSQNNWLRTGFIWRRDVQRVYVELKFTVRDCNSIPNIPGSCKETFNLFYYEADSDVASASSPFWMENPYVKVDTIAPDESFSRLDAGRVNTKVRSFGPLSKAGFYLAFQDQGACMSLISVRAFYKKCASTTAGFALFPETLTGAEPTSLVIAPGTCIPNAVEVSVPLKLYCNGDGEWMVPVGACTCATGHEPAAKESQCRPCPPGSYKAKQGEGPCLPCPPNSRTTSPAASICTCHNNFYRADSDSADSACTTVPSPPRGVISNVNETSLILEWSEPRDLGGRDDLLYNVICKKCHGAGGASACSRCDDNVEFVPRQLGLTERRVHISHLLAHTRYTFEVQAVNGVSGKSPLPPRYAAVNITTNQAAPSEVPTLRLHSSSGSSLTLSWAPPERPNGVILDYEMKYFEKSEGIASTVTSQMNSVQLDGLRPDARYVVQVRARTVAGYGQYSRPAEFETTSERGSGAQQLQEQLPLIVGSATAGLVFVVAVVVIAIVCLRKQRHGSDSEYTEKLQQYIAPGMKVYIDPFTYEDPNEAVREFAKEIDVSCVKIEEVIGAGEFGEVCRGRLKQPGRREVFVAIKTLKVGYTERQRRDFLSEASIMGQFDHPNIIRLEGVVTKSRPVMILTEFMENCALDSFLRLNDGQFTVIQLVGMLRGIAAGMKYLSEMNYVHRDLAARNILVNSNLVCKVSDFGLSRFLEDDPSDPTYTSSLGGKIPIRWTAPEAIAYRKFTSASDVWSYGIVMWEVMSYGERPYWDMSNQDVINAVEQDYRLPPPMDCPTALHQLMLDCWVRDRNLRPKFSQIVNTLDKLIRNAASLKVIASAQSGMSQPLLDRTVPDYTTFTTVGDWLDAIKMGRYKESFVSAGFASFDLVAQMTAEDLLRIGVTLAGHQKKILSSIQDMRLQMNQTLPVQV

The target of another test is T2, MAPK15 (Homo sapiens, UniProt Q8TD08).
T2 sequence (Q8TD08 1-544): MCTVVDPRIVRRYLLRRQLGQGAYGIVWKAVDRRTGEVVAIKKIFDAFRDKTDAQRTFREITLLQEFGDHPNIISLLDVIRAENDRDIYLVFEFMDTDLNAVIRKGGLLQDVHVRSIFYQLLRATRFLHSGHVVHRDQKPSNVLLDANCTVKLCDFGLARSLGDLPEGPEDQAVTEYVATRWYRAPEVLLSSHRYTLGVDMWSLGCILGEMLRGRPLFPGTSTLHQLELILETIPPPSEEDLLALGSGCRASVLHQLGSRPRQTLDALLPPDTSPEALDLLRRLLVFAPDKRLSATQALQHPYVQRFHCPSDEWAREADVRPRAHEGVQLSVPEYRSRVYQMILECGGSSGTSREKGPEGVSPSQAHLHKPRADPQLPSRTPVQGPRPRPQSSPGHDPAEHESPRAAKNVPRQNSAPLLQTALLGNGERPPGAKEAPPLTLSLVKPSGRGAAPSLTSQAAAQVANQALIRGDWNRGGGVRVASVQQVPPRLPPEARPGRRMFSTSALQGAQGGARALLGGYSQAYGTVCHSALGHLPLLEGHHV

Another test deals with T3, MST2 (Homo sapiens, UniProt Q13188).
T3 construct: gene STK3
T3 sequence (Q13188 1-491): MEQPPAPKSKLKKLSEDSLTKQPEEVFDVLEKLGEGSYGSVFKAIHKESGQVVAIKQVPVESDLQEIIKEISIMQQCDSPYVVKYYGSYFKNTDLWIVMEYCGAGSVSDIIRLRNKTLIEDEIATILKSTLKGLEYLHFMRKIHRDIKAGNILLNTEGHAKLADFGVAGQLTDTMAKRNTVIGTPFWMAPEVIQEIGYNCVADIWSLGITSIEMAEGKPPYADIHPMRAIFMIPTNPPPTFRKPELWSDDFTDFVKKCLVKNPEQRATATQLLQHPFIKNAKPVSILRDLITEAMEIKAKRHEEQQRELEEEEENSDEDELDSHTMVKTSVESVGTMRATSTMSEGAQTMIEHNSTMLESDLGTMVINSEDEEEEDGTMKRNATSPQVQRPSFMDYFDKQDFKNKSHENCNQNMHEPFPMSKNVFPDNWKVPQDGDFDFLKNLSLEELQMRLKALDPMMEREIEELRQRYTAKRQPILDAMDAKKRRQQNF

In the next test the target is T4, STLK3 (Homo sapiens, UniProt Q9UEW8).
T4 construct: gene STK39

Where two headings read alike, the source gives them in different places.

MELK, sequence (Q14680 whole entry): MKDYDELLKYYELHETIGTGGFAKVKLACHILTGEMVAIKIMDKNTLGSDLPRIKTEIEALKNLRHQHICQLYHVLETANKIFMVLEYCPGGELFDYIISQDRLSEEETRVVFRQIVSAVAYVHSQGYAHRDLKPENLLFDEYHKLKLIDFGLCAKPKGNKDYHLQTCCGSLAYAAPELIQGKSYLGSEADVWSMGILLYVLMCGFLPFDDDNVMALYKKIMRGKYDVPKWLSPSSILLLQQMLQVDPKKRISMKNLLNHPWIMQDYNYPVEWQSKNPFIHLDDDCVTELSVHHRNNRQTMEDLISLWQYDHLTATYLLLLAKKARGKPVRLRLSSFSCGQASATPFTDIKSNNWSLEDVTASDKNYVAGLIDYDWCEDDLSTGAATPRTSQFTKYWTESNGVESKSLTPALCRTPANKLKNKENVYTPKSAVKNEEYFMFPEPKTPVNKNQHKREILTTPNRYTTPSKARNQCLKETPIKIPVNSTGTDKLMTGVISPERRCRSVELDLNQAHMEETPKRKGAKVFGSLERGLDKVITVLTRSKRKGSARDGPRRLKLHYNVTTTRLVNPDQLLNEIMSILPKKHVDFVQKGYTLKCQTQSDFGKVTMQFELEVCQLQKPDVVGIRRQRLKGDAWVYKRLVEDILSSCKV
FGFR2, sequence (P21802 whole entry): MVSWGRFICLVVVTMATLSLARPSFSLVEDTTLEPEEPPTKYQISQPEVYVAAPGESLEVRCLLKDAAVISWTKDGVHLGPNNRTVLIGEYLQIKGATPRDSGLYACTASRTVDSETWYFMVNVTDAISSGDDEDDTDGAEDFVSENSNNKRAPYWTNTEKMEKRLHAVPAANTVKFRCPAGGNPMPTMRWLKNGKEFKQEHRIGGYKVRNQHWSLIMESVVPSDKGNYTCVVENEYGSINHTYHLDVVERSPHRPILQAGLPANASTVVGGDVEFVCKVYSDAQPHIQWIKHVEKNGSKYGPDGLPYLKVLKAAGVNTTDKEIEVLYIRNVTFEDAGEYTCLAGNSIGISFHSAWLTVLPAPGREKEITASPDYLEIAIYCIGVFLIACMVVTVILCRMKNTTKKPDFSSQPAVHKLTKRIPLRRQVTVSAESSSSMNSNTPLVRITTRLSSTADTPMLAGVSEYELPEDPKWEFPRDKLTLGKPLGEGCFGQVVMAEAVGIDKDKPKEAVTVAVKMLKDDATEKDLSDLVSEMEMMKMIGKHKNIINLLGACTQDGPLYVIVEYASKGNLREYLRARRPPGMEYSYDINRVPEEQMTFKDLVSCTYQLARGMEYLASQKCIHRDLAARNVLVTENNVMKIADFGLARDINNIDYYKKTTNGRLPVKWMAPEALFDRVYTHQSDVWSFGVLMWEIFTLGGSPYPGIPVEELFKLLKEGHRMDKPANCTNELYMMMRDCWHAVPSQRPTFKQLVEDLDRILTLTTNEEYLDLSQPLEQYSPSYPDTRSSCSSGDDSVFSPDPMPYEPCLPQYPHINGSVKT
NEK7, sequence (Q8TDX7 whole entry): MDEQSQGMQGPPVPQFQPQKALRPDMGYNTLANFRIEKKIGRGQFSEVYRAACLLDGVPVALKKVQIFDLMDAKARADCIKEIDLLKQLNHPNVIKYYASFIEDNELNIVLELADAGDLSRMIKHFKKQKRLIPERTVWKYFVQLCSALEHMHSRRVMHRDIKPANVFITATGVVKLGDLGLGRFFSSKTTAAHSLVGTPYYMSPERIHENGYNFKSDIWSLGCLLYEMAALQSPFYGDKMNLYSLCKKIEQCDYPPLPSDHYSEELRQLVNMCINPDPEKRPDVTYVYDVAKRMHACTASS
DAPK1, sequence (P53355 whole entry): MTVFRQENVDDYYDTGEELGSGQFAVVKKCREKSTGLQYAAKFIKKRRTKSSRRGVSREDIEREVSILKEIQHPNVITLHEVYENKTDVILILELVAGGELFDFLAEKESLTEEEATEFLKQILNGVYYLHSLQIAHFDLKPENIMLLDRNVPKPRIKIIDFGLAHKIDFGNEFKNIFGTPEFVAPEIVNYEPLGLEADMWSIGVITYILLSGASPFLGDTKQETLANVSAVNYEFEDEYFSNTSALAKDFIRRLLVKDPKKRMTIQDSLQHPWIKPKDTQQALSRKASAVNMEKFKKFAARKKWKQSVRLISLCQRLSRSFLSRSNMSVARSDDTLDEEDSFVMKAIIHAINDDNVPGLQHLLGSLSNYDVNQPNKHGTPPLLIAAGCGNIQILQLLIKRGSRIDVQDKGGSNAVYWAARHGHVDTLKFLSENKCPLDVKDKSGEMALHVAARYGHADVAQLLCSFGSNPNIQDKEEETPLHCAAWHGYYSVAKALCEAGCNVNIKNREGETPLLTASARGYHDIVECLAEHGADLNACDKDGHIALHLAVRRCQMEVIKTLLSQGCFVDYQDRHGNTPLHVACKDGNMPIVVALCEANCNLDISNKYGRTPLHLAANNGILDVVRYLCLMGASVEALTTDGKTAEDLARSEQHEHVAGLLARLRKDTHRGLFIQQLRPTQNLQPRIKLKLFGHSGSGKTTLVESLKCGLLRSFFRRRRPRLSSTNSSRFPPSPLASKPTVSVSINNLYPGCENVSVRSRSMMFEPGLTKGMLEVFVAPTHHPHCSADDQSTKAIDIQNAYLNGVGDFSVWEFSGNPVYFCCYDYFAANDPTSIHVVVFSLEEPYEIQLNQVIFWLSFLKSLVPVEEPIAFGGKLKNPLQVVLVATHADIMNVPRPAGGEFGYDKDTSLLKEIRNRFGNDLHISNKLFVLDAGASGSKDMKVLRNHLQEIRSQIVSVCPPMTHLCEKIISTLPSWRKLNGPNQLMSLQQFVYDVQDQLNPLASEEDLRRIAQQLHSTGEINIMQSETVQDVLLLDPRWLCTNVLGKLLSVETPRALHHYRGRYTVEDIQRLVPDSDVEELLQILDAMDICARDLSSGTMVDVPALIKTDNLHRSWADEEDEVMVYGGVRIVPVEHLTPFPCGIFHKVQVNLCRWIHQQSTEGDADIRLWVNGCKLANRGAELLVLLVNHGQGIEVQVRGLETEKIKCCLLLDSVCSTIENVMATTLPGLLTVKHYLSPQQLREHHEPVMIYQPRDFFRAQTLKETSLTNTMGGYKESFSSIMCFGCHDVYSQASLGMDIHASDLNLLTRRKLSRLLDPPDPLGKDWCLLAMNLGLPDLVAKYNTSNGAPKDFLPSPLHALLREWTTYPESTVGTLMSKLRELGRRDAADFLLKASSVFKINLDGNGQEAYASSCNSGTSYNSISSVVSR

Consider `CC(C)Oc1ccc2ccn(-c3cncc(-c4ccc(C(=O)O)cc4)n3)c2c1` [6c], for which the ΔTm at 10 µM on DAPK1 (read-out: 6c) came out at 7 °C; on EPHB3 (read-out: 6c), 1 °C; at FGFR2 (read-out: 6c) it was 0 °C; at MAPK15 (read-out: 6c), 15 °C; at MELK (read-out: 6c) it was 4 °C; at MST2 (read-out: 6c) it was 3 °C. Besides, the ΔTm at 10 µM was -1 °C at NEK7 (read-out: 6c) and 0 °C at STLK3 (read-out: 6c).
For the compound `COc1ccc(OC(C)C)cc1Nc1cncc(-c2ccc(C(=O)O)cc2)n1` [7c], the ΔTm at 10 µM is 6 °C at DAPK1 (read-out: 7c); -1 °C on EPHB3 (read-out: 7c); 0 °C on FGFR2 (read-out: 7c); 10 °C on MAPK15 (read-out: 7c); 4 °C on MELK (read-out: 7c); 2 °C on MST2 (read-out: 7c). Besides, the ΔTm at 10 µM is -1 °C at NEK7 (read-out: 7c) and 0 °C at STLK3 (read-out: 7c).
As for `CC(C)Nc1ccc2cnn(-c3cncc(-c4ccc(C(=O)O)cc4)n3)c2c1` [compound 2, 2], the ΔTm at 10 µM on DAPK1 (read-out: 2) amounted to 9 °C; on EPHB3 (read-out: 2), 0 °C; at FGFR2 (read-out: 2), 0 °C; on MAPK15 (read-out: 2), 12 °C; at MELK (read-out: 2) it was 6 °C; at MST2 (read-out: 2), 4 °C. In addition, the ΔTm at 10 µM on NEK7 (read-out: 2) came to 0 °C; at STLK3 (read-out: 2), 1 °C.
